We go through 1 molecule from US5484924A, “Imidazonaphthyridine derivatives” (Kyowa Hakko Kogyo Co., Ltd., priority 1991, dated 1996).

The subject of this test is tracheae from guinea pigs. In words: passive Shultz-Dale reaction (broncho-dilative activity), relaxation of antigen-contracted tracheal strips. As to conditions: Cavia porcellus; concentration of 50% relaxation; passively sensitized guinea pig tracheal zig-zag strips, 37° C., antigen (egg white albumin) 1 μg/ml. Also noted: species or system Male Hartley guinea pigs. As for the experimental part: Effect on passive Shultz-Dale reaction (broncho-dilative activity)
Male Hartley guinea pigs weighing 350 to 500 g were passively sensitized by intraperitoneal injection of rabbit anti-OA serum prepared in advance by the method of Koda et al. [Folia Pharmacol., Japon 66, 237, (1970)]. After 24 hours, tracheae were removed from guinea pigs and used for experiment. The zig-zag strips of the tracheae were prepared by the method of Emmerson and Mackay [J. Pharm. Pharmacol., 31, 798, (1979)]. The strips were suspended in Krebs-Henseleit solution at 37° C. under aeration of a mixed gas of 95% oxygen and 5% carbon dioxide, and equilibrated for one hour. Then, antigen (egg white albumin) was introduced in the solution (final concentration; 1 μg/ml), and the contraction was measured by isotonic transducer (TD-112s, made by Nihon Kohden K. K., Japan) and recorded on a recorder (Type 3066, made by Yokogawa-Hokushin Denki, K. K. Japan). After the contraction curves reached a plateau, the test compounds were successively added in order to get cumulative concentration-relaxation curves. The concentration of 50% relaxation rate (IC50) was calculated from the regression line, which was obtained from the cumulative concentration-relaxation curves.

As for `S=c1c2[nH]cnc2c2cccnc2n1-c1ccccc1` [Compound 1, 5-Phenyl-3H-imidazo[4,5-c][1,8]naphthyridin-4(5H)-thione], the IC50 (commonly the concentration at which inhibition is half-maximal) was determined as 4.8 µM.
